The target of this test is human APJ receptor (Homo sapiens (Human), UniProt P35414). Description: [35S]GTPγS binding assay on membranes from CHO cells stably expressing human APJ receptor. It counts as biochemical. Conditions: means of several independent experiments, read-out: Activity hAPJ SPA EC50 IP. In a few lines: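 Membranes from CHO cells stably expressing FLAG-tagged human APJ incubated with [35S]GTPγS in buffer with optimized GDP, MgCl2 and NaCl levels, 90 min at RT. Signal read by imaging; EC50 by non-linear regression from means of several independent experiments.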
Chain of human APJ receptor (P35414 whole entry): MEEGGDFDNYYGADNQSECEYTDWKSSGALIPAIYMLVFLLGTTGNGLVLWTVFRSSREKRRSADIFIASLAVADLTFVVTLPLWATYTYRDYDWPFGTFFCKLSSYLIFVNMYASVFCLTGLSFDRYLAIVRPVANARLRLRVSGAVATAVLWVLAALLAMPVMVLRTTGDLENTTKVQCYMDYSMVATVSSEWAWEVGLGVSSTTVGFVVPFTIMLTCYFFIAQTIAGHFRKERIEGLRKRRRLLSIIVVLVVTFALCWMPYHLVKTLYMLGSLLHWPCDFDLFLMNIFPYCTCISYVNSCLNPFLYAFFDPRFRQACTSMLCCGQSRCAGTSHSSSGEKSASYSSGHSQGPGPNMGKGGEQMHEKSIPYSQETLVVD
In general terms: GTPγS is a poorly hydrolysed GTP analogue; its binding reports G protein activation.
As a reminder, the EC50 is the midpoint of the concentration-response curve. On to `COc1cccc(OC)c1-n1c(NS(=O)(=O)[C@@H](C)[C@H](OC)c2ncc(C)cn2)nnc1-c1ccccc1F` [Example 67.0, (1R,2S)-N-(4-(2,6-dimethoxyphenyl)-5-(2-fluorophenyl)-4H-1,2,4-triazol-3-yl)-1-methoxy-1-(5-methyl-2-pyrimidinyl)-2-propanesulfonamide], for which the EC50 amounted to 5.9 nM. On to `COc1cccc(-c2nnc(NS(=O)(=O)[C@@H](C)[C@H](OC)c3ncc(C)cn3)n2-c2c(OC)cccc2OC)c1` [Example 76.0, (1R,2S)-N-(4-(2,6-dimethoxyphenyl)-5-(3-methoxyphenyl)-4H-1,2,4-triazol-3-yl)-1-methoxy-1-(5-methyl-2-pyrimidinyl)-2-propanesulfonamide], for which the EC50 was 0.51 nM. Under `COc1ncnc(OC)c1-n1c(NS(=O)(=O)[C@@H](C)[C@H](OC)c2ncc(Cl)cn2)nnc1-c1cccc2cn(C)nc12` [Example 94.0] stands 2.9 nM. Regarding `COC[C@H](C)n1c(NS(=O)(=O)[C@@H](C)[C@H](C)c2ncc(Cl)cn2)nnc1-c1ccccc1` [Example 126.0], the EC50 stood at 17 nM. Under `COc1cccc(-c2nnc(NS(=O)(=O)[C@@H](C)[C@H](OC)c3ncc(C)cn3)n2-c2c(OC)ncnc2OC)c1` [Example 6.0, (1R,2S)-N-(4-(4,6-dimethoxy-5-pyrimidinyl)-5-(3-methoxyphenyl)-4H-1,2,4-triazol-3-yl)-1-methoxy-1-(5-methyl-2-pyrimidinyl)-2-propanesulfonamide] stands 6.8 nM. As for `C[C@H](c1ncc(Cl)cn1)[C@H](C)S(=O)(=O)Nc1nnc(-c2ccccc2)n1-c1c(F)cccc1F` [Example 46.0, (2S,3R)-3-(5-chloro-2-pyrimidinyl)-N-(4-(2,6-difluorophenyl)-5-phenyl-4H-1,2,4-triazol-3-yl)-2-butanesulfonamide], the figure is 1.7 nM.

As for `COc1ccnc(OC)c1-n1c(NS(=O)(=O)[C@@H](C)[C@H](C)c2cnc(C)cn2)nnc1-c1ccccc1` (single isomer, unassigned) [Example 55.0, (2S,3R,P)-N-(4-(2,4-dimethoxy-3-pyridinyl)-5-phenyl-4H-1,2,4-triazol-3-yl)-3-(5-methyl-2-pyrazinyl)-2-butanesulfonamide or (2S,3R,M)-N-(4-(2,4-dimethoxy-3-pyridinyl)-5-phenyl-4H-1,2,4-triazol-3-yl)-3-(5-methyl-2-pyrazinyl)-2-butanesulfonamide], the EC50 worked out at 0.33 nM. Under `COCC(COC)n1c(NS(=O)(=O)[C@@H](C)[C@@H](OC(C)C)c2ncc(Cl)cn2)nnc1-c1ccccc1` [Example 123.0] stands 7.2 nM; under `COc1ccnc(OC)c1-n1c(NS(=O)(=O)[C@@H](C)[C@H](OC)c2ncc(C)cn2)nnc1-c1ccccc1` [Example 36.0, (1R,2S,P)-N-(4-(2,4-dimethoxy-3-pyridinyl)-5-phenyl-4H-1,2,4-triazol-3-yl)-1-methoxy-1-(5-methyl-2-pyrimidinyl)-2-propanesulfonamide and (1R,2S,S)-N-(4-(2,4-dimethoxy-3-pyridinyl)-5-phenyl-4H-1,2,4-triazol-3-yl)-1-methoxy-1-(5-methyl-2-pyrimidinyl)-2-propanesulfonamide], 1.9 nM; under `COc1cccc(OC)c1-n1c(NS(=O)(=O)[C@@H](C)[C@H](O)c2ncc(C)cn2)nnc1-c1ccccc1` [Example 18.0, (1R,2S)-N-(4-(2,6-dimethoxyphenyl)-5-phenyl-4H-1,2,4-triazol-3-yl)-1-hydroxy-1-(5-methyl-2-pyrimidinyl)-2-propanesulfonamide], 0.81 nM.

Take `COc1ncnc(OC)c1-n1c(NS(=O)(=O)[C@@H](C)[C@H](C)c2ncc(Cl)cn2)nnc1-c1ccccc1` [Example 17.0, (2S,3R)-3-(5-chloro-2-pyrimidinyl)-N-(4-(4,6-dimethoxy-5-pyrimidinyl)-5-phenyl-4H-1,2,4-triazol-3-yl)-2-butanesulfonamide]: the EC50 is 0.89 nM. On to `COc1cccc(OC)c1-n1c(NS(=O)(=O)[C@@H](C)[C@H](OC)c2ncc(C)cn2)nnc1-c1ccc(OC(F)(F)F)cc1` [Example 69.0, (1R,2S)-N-(4-(2,6-dimethoxyphenyl)-5-(4-(trifluoromethoxy)phenyl)-4H-1,2,4-triazol-3-yl)-1-methoxy-1-(5-methyl-2-pyrimidinyl)-2-propanesulfonamide], for which the EC50 was 35 nM. As for `COc1cccc(OC)c1-n1c(NS(=O)(=O)[C@@H](C)[C@H](OC)c2ncc(C)cn2)nnc1-c1cccc([C@](C)(O)C(F)(F)F)c1` (mixture of isomers) [Example 88.0, (1R,2S)—N-(4-(2,6-Dimethoxyphenyl)-5-(3-((1S)-2,2,2-trifluoro-1-hydroxy-1-methylethyl)phenyl)-4H-1,2,4-triazol-3-yl)-1-methoxy-1-(5-methyl-2-pyrimidinyl)-2-propanesulfonamide and (1R,2S)—N-(4-(2,6-dimethoxyphenyl)-5-(3-((1R)-2,2,2-trifluoro-1-hydroxy-1-methylethyl)phenyl)-4H-1,2,4-triazol-3-yl)-1-methoxy-1-(5-methyl-2-pyrimidinyl)-2-propanesulfonamide], the EC50 was found to be 23 nM. Take `COc1ncnc(OC)c1-n1c(NS(=O)(=O)[C@@H](C)[C@H](OC)c2ncc(C)cn2)nnc1-c1cccc(Br)c1` [Example 1.0, (1R,2S)—N-(5-(3-Bromophenyl)-4-(4,6-dimethoxypyrimidin-5-yl)-4H-1,2,4-triazol-3-yl)-1-methoxy-1-(5-methylpyrimidin-2-yl)propane-2-sulfonamide]: the EC50 was 4.2 nM. For the molecule `COc1cccc(OC)c1-n1c(NS(=O)(=O)[C@@H](C)[C@H](OC)c2ncc(C)cn2)nnc1-c1cccc(Br)c1` [Example 81.0, (1R,2S)-N-(5-(3-bromophenyl)-4-(2,6-dimethoxyphenyl)-4H-1,2,4-triazol-3-yl)-1-methoxy-1-(5-methyl-2-pyrimidinyl)-2-propanesulfonamide], the EC50 was 0.27 nM. In the case of `COc1cccc(OC)c1-n1c(NS(=O)(=O)[C@@H](C)[C@H](C)c2cnc(C)cn2)nnc1-c1ccccc1` [Example 25.0, (2S,3R)-N-(4-(2,6-dimethoxyphenyl)-5-phenyl-4H-1,2,4-triazol-3-yl)-3-(5-methyl-2-pyrazinyl)-2-butanesulfonamide], the 50% effective concentration (EC50) stood at 1.3 nM. As for `COc1cccc(OC)c1-n1c(NS(=O)(=O)[C@H]2C[C@@H](O)CN(c3ncc(F)cn3)C2)nnc1-c1ccccc1` (mixture of isomers) [Example 53.0, (3R,5S)-N-(4-(2,6-dimethoxyphenyl)-5-phenyl-4H-1,2,4-triazol-3-yl)-1-(5-fluoro-2-pyrimidinyl)-5-hydroxy-3-piperidinesulfonamide and (3S,5R)-N-(4-(2,6-dimethoxyphenyl)-5-phenyl-4H-1,2,4-triazol-3-yl)-1-(5-fluoro-2-pyrimidinyl)-5-hydroxy-3-piperidinesulfonamide], the EC50 is 4.9 nM. `CO[C@H](c1ncc(Cl)cn1)[C@H](C)S(=O)(=O)Nc1nnc(-c2ccccc2)n1C1(C)CC1` [Example 98.0]: the EC50 was 3.3 nM. Turning to `COCC1(n2c(NS(=O)(=O)[C@@H](C)[C@H](OC)c3ncc(Cl)cn3)nnc2-c2cccc3nn(C)cc23)CC1` [Example 114.0], the EC50 came out at 53 nM.

Consider `COc1cccc(OC)c1-n1c(NS(=O)(=O)[C@@H](C)[C@H](C)c2ncc(Cl)cn2)nnc1-c1ccccc1` [Example 16.0, (2S,3R)-3-(5-chloro-2-pyrimidinyl)-N-(4-(2,6-dimethoxyphenyl)-5-phenyl-4H-1,2,4-triazol-3-yl)-2-butanesulfonamide], for which the EC50 came out at 0.2 nM.
